pIC50: −log10 of the molar value.
Key:
TUR = experiment: cells; format: functional, cell-based; settings: Homo sapiens;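 note: growth inhibition of human TUR cells, read out with a cell viability assay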
Description: SANGER: Inhibition of human TUR cell growth in a cell viability assay.

SK-CO-1 = experiment: cells; format: functional, cell-based; settings: Homo sapiens;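 note: growth inhibition of SK-CO-1 cells, determined by a viability readout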
Description: SANGER: Inhibition of human SK-CO-1 cell growth in a cell viability assay.

NCI-H1618 = experiment: cells; format: functional, cell-based; settings: Homo sapiens;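 note: growth inhibition of human NCI-H1618 cells, measured by a cell viability assay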
Description: SANGER: Inhibition of human NCI-H1618 cell growth in a cell viability assay.

NCI-H2196 = experiment: cells; format: functional, cell-based; settings: Homo sapiens;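 note: cell viability assay used as the readout of growth inhibition in NCI-H2196 cells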
Description: SANGER: Inhibition of human NCI-H2196 cell growth in a cell viability assay.

MFE-296 = experiment: SANGER: Inhibition of human MFE-296 cell growth in a cell viability assay.; format: functional, cell-based
NCI-H838 = experiment: cells; format: functional, cell-based; settings: Homo sapiens;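 note: growth inhibition of human NCI-H838 cells, read out by a cell viability assay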
Description: SANGER: Inhibition of human NCI-H838 cell growth in a cell viability assay.

MDA-MB-134-VI = experiment: cells; format: functional, cell-based; settings: Homo sapiens
Description: SANGER: Inhibition of human MDA-MB-134-VI cell growth in a cell viability assay.

NCI-H1417 = experiment: cells; format: functional, cell-based; settings: Homo sapiens;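 note: human NCI-H1417 cells, growth inhibition determined with a cell viability readout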
Description: SANGER: Inhibition of human NCI-H1417 cell growth in a cell viability assay.

PLC-PRF-5 = experiment: cells; format: functional, cell-based; settings: Homo sapiens;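 note: growth inhibition of human PLC-PRF-5 cells, read out with a viability assay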
Description: SANGER: Inhibition of human PLC-PRF-5 cell growth in a cell viability assay.

DV-90 = experiment: cells; format: functional, cell-based; settings: Homo sapiens;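 note: Read-out is a viability assay, with IC50 reflecting the drop in DV-90 cell growth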
Description: SANGER: Inhibition of human DV-90 cell growth in a cell viability assay.

RT-4 = experiment: SANGER: Inhibition of human RT4 cell growth in a cell viability assay.; format: functional, cell-based; settings: Homo sapiens, RT-4
BL-41 = experiment: cells; format: functional, cell-based; settings: Homo sapiens;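 note: growth inhibition of human BL-41 cells, read out with a cell viability assay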
Description: SANGER: Inhibition of human BL-41 cell growth in a cell viability assay.

TT = experiment: cells; format: functional, cell-based; settings: Homo sapiens
Description: SANGER: Inhibition of human TT cell growth in a cell viability assay.

RPMI 8402 = experiment: SANGER: Inhibition of human RPMI-8402 cell growth in a cell viability assay.; format: functional, cell-based
NCI-H1522 = experiment: cells; format: functional, cell-based; settings: Homo sapiens;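 note: growth inhibition of NCI-H1522 cells, read out with a cell viability assay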
Description: SANGER: Inhibition of human NCI-H1522 cell growth in a cell viability assay.

NCI-H1734 = experiment: cells; format: functional, cell-based; settings: Homo sapiens;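 note: growth inhibition of human NCI-H1734 cells, read out with a cell viability assay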
Description: SANGER: Inhibition of human NCI-H1734 cell growth in a cell viability assay.

L-540 = experiment: cells; format: functional, cell-based; settings: Homo sapiens;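 note: growth inhibition of the human L-540 cell line, read out with a viability assay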
Description: SANGER: Inhibition of human L-540 cell growth in a cell viability assay.

NCI-H2141 = experiment: cells; format: functional, cell-based; settings: Homo sapiens;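 note: growth inhibition of human NCI-H2141 cells, read out with a cell viability assay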
Description: SANGER: Inhibition of human NCI-H2141 cell growth in a cell viability assay.

LB647-SCLC = experiment: cells; format: functional, cell-based; settings: Homo sapiens;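 note: cell growth inhibition, read out by a viability assay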
Description: SANGER: Inhibition of human LB647-SCLC cell growth in a cell viability assay.

MRK-nu-1 = experiment: cells; format: functional, cell-based; settings: Homo sapiens;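 note: cell viability assay measuring growth suppression of human MRK-nu-1 cells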
Description: SANGER: Inhibition of human MRK-nu-1 cell growth in a cell viability assay.

HCC1599 = experiment: cells; format: functional, cell-based; settings: Homo sapiens;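 note: growth inhibition of HCC1599 cells, read out in a cell viability assay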
Description: SANGER: Inhibition of human HCC1599 cell growth in a cell viability assay.

Daudi = experiment: cells; format: functional, cell-based; settings: Homo sapiens;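 note: growth inhibition of Daudi cells, read out by a viability assay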
Description: SANGER: Inhibition of human Daudi cell growth in a cell viability assay.

SR = experiment: cells; format: functional, cell-based; settings: Homo sapiens
Description: SANGER: Inhibition of human SR cell growth in a cell viability assay.

ECC4 = experiment: cells; format: functional, cell-based; settings: Homo sapiens;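 note: growth inhibition of ECC4 cells, read out with a cell viability assay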
Description: SANGER: Inhibition of human ECC4 cell growth in a cell viability assay.

MES-SA = experiment: cells; format: functional, cell-based, Homo sapiens; settings: Homo sapiens, MES-SA;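 note: growth inhibition of human MES-SA cells, read out with a cell viability assay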
Description: SANGER: Inhibition of human MES-SA cell growth in a cell viability assay.

NB1 = experiment: cells; format: functional, cell-based; settings: Homo sapiens;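 note: reduction of NB1 cell proliferation, read out with a viability assay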
Description: SANGER: Inhibition of human NB1 cell growth in a cell viability assay.

SNU-475 = experiment: cells; format: functional, cell-based; settings: Homo sapiens
Description: SANGER: Inhibition of human SNU-475 cell growth in a cell viability assay.

HCC1143 = experiment: cells; format: functional, cell-based; settings: Homo sapiens;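 note: growth inhibition of human HCC1143 cells, read out with a cell viability assay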
Description: SANGER: Inhibition of human HCC1143 cell growth in a cell viability assay.

CCF-STTG1 = experiment: cells; format: functional, cell-based; settings: Homo sapiens;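 note: growth inhibition of human CCF-STTG1 cells, determined with a cell viability read-out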
Description: SANGER: Inhibition of human CCF-STTG1 cell growth in a cell viability assay.

P31-FUJ = experiment: cells; format: functional, cell-based; settings: Homo sapiens;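 note: growth inhibition of P31-FUJ cells, read out with a viability assay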
Description: SANGER: Inhibition of human P31-FUJ cell growth in a cell viability assay.

SNU-423 = experiment: cells; format: functional, cell-based, Homo sapiens; settings: Homo sapiens, SNU-423
Description: SANGER: Inhibition of human SNU-423 cell growth in a cell viability assay.

COLO 205 = experiment: cells; format: functional, cell-based; settings: Homo sapiens
Description: SANGER: Inhibition of human COLO-205 cell growth in a cell viability assay.

EW-7 = experiment: SANGER: Inhibition of human EW-7 cell growth in a cell viability assay.; format: functional, cell-based; settings: Homo sapiens, EW-7
EFE-184 = experiment: cells; format: functional, cell-based; settings: Homo sapiens
Description: SANGER: Inhibition of human EFE-184 cell growth in a cell viability assay.

KARPAS-422 = experiment: cells; format: functional, cell-based; settings: Homo sapiens
Description: SANGER: Inhibition of human KARPAS-422 cell growth in a cell viability assay.

WSU-NHL = experiment: cells; format: functional, cell-based; settings: Homo sapiens;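 note: growth inhibition of human WSU-NHL cells, read out with a cell viability assay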
Description: SANGER: Inhibition of human WSU-NHL cell growth in a cell viability assay.

NCI-H1963 = experiment: cells; format: functional, cell-based; settings: Homo sapiens
Description: SANGER: Inhibition of human NCI-H1963 cell growth in a cell viability assay.

MC-CAR = experiment: cells; format: functional, cell-based; settings: Homo sapiens;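 note: growth inhibition of the human MC-CAR cell line, read out by a cell viability assay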
Description: SANGER: Inhibition of human MC-CAR cell growth in a cell viability assay.

NCI-H748 = experiment: cells; format: functional, cell-based; settings: Homo sapiens;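 note: growth inhibition of NCI-H748 cells, measured by a cell viability assay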
Description: SANGER: Inhibition of human NCI-H748 cell growth in a cell viability assay.

IPC-298 = experiment: SANGER: Inhibition of human IPC-298 cell growth in a cell viability assay.; format: functional, cell-based
Calu-1 = experiment: SANGER: Inhibition of human Calu-1 cell growth in a cell viability assay.; format: functional, cell-based
LP-1 = experiment: cells; format: functional, cell-based; settings: Homo sapiens;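 note: growth inhibition of human LP-1 cells, with the read-out taken from a cell viability assay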
Description: SANGER: Inhibition of human LP-1 cell growth in a cell viability assay.

MDA-MB-468 = experiment: cells; format: functional, cell-based; settings: Homo sapiens
Description: SANGER: Inhibition of human MDA-MB-468 cell growth in a cell viability assay.

LU-165 = experiment: cells; format: functional, cell-based; settings: Homo sapiens
Description: SANGER: Inhibition of human LU-165 cell growth in a cell viability assay.

K052 = experiment: cells; format: functional, cell-based; settings: Homo sapiens;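 note: Read-out from a cell viability assay, IC50 reflecting suppression of K052 cell growth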
Description: SANGER: Inhibition of human K052 cell growth in a cell viability assay.

BC1 cell line = experiment: SANGER: Inhibition of human BC-1 cell growth in a cell viability assay.; format: functional, cell-based
Caov-3 cell line = experiment: cells; format: functional, cell-based; settings: Homo sapiens;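 note: cell growth inhibition read out by a viability assay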
Description: SANGER: Inhibition of human Caov-3 cell growth in a cell viability assay.

SNG-M = experiment: cells; format: functional, cell-based; settings: Homo sapiens
Description: SANGER: Inhibition of human SNG-M cell growth in a cell viability assay.

C[C@]1(O)C[C@@H](c2nc(-c3ccc4ccc(-c5ccccc5)nc4c3)c3c(N)nccn32)C1 [LINSITINIB] was tested, and the pIC50 (TUR) was under 5.59, the pIC50 (SK-CO-1) was under 5.59 and the pIC50 (NCI-H1618) was under 5.59. It also gave a pIC50 (NCI-H2196) of under 5.59, a pIC50 (MFE-296) of under 5.59 and a pIC50 (NCI-H838) of under 5.59. For the same compound, the pIC50 (MDA-MB-134-VI) was under 5.59, the pIC50 (NCI-H1417) was under 5.59 and the pIC50 (PLC-PRF-5) was under 5.59. It also gave a pIC50 (DV-90) of under 5.59, a pIC50 (RT-4) of under 5.59 and a pIC50 (BL-41) of under 5.59. For the same compound, the pIC50 (TT) was under 5.59, the pIC50 (RPMI 8402) was under 5.59 and the pIC50 (NCI-H1522) was under 5.59. The pIC50 (NCI-H1734) was under 5.59, the pIC50 (L-540) was under 5.59 and the pIC50 (NCI-H2141) was under 5.59. The pIC50 (LB647-SCLC) was 5.75, the pIC50 (MRK-nu-1) was under 5.59 and the pIC50 (HCC1599) was under 5.59. It also gave a pIC50 (Daudi) of under 5.59, a pIC50 (SR) of under 5.59 and a pIC50 (ECC4) of under 5.59. The pIC50 (MES-SA) was under 5.59, the pIC50 (NB1) was under 5.59 and the pIC50 (SNU-475) was under 5.59. For the same compound, the pIC50 (HCC1143) was 5.61, the pIC50 (CCF-STTG1) was under 5.59 and the pIC50 (P31-FUJ) was under 5.59. For the same compound, the pIC50 (SNU-423) was under 5.59, the pIC50 (COLO 205) was 6.98 and the pIC50 (EW-7) was 6.72. The pIC50 (EFE-184) was under 5.59, the pIC50 (KARPAS-422) was under 5.59 and the pIC50 (WSU-NHL) was under 5.59. It also gave a pIC50 (NCI-H1963) of under 5.59, a pIC50 (MC-CAR) of under 5.59 and a pIC50 (NCI-H748) of under 5.59. It also gave a pIC50 (IPC-298) of under 5.59, a pIC50 (Calu-1) of under 5.59 and a pIC50 (LP-1) of 5.65. It also gave a pIC50 (MDA-MB-468) of under 5.59, a pIC50 (LU-165) of under 5.59 and a pIC50 (K052) of under 5.59. For the same compound, the pIC50 (BC1 cell line) was under 5.59, the pIC50 (Caov-3 cell line) was under 5.59 and the pIC50 (SNG-M) was under 5.59.

In the case of C=CCc1cccc(/C=N/NC(=O)CN2CCN(Cc3ccccc3)CC2)c1O [PAC-1], the pIC50 (TUR) was under 5.59, the pIC50 (SK-CO-1) was under 5.59 and the pIC50 (NCI-H1618) was under 5.59. For the same compound, the pIC50 (NCI-H2196) was under 5.59, the pIC50 (MFE-296) was under 5.59 and the pIC50 (NCI-H838) was under 5.59. The pIC50 (MDA-MB-134-VI) was under 5.59, the pIC50 (NCI-H1417) was under 5.59 and the pIC50 (PLC-PRF-5) was under 5.59. It also gave a pIC50 (DV-90) of under 5.59, a pIC50 (RT-4) of under 5.59 and a pIC50 (BL-41) of 5.84. The pIC50 (TT) was under 5.59, the pIC50 (RPMI 8402) was 5.75 and the pIC50 (NCI-H1522) was under 5.59. It also gave a pIC50 (NCI-H1734) of under 5.59, a pIC50 (L-540) of 5.66 and a pIC50 (NCI-H2141) of under 5.59. The pIC50 (LB647-SCLC) was under 5.59, the pIC50 (MRK-nu-1) was under 5.59 and the pIC50 (HCC1599) was under 5.59. It also gave a pIC50 (Daudi) of 6.02, a pIC50 (SR) of under 5.59 and a pIC50 (ECC4) of under 5.59. The pIC50 (MES-SA) was under 5.59, the pIC50 (NB1) was under 5.59 and the pIC50 (SNU-475) was under 5.59. It also gave a pIC50 (HCC1143) of under 5.59, a pIC50 (CCF-STTG1) of under 5.59 and a pIC50 (P31-FUJ) of under 5.59. For the same compound, the pIC50 (SNU-423) was under 5.59, the pIC50 (COLO 205) was under 5.59 and the pIC50 (EW-7) was under 5.59. It also gave a pIC50 (EFE-184) of under 5.59, a pIC50 (KARPAS-422) of under 5.59 and a pIC50 (WSU-NHL) of under 5.59. For the same compound, the pIC50 (NCI-H1963) was under 5.59, the pIC50 (MC-CAR) was 5.81 and the pIC50 (NCI-H748) was under 5.59. It also gave a pIC50 (IPC-298) of under 5.59, a pIC50 (Calu-1) of under 5.59 and a pIC50 (LP-1) of under 5.59. The pIC50 (MDA-MB-468) was under 5.59, the pIC50 (LU-165) was under 5.59 and the pIC50 (K052) was under 5.59. It also gave a pIC50 (BC1 cell line) of 5.96, a pIC50 (Caov-3 cell line) of under 5.59 and a pIC50 (SNG-M) of 5.92.
